# Measured values as given in patent publication US11304946B2, “2-hetarylpyrimidine-4-carboxamides as aryl hydrocarbon receptor antagonists” (Bayer Aktiengesellschaft, priority 2017, dated 2022).
# pIC50: −log10 of the molar value.
# What was measured:
# Human AhR = target: T1, Human AhR (Homo sapiens, UniProt P35869); assay: Transactivation assay in human cell line (in vitro assay 1: antagonism); assay type: cell-based; settings: U87 glioblastoma cells, AHR inducible (DRE) firefly luciferase reporter, 150 μM kynurenic acid, 20 hours
# T1 construct: host or cells: U87 glioblastoma cells, stably transfected with DRE-driven firefly luciferase and constitutive renilla reporter constructs
# T1 sequence (P35869 11-848): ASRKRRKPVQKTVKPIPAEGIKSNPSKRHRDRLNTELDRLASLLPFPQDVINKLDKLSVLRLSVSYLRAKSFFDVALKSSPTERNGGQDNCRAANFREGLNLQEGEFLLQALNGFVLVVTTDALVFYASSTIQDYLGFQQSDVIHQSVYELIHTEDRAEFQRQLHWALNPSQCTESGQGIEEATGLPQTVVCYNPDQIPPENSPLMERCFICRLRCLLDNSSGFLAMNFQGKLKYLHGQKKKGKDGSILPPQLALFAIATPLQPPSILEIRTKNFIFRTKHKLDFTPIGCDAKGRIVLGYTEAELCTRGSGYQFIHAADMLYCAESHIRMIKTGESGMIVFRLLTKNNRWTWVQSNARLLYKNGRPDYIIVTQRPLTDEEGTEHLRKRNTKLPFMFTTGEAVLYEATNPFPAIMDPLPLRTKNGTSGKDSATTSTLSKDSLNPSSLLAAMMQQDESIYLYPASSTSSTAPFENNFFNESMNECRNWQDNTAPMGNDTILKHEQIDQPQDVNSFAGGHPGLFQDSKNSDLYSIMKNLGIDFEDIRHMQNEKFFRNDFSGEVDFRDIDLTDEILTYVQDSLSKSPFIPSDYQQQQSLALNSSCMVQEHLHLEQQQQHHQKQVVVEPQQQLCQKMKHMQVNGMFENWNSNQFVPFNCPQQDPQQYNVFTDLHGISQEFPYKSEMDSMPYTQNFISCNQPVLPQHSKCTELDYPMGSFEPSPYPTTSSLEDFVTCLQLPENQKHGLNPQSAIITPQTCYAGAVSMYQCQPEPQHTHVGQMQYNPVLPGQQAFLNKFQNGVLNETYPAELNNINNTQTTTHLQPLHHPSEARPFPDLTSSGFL
# How it was run: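 U87 glioblastoma cells with endogenous AHR, stably carrying DRE-driven firefly luciferase and constitutive Renilla reporters, prestimulated with kynurenic acid before compound. Dual luciferase read-out; Renilla signal used to flag toxicity.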
# Mouse AhR = target: T2, Mouse AhR (Mus musculus, UniProt P30561); assay: Transactivation assay in mouse cell line (in vitro assay 2: antagonism); assay type: cell-based; settings: Hepa 1c1c7 cells, AHR inducible (DRE) firefly luciferase reporter, 200 μM kynurenic acid, 20 hours
# T2 sequence (P30561 1-848): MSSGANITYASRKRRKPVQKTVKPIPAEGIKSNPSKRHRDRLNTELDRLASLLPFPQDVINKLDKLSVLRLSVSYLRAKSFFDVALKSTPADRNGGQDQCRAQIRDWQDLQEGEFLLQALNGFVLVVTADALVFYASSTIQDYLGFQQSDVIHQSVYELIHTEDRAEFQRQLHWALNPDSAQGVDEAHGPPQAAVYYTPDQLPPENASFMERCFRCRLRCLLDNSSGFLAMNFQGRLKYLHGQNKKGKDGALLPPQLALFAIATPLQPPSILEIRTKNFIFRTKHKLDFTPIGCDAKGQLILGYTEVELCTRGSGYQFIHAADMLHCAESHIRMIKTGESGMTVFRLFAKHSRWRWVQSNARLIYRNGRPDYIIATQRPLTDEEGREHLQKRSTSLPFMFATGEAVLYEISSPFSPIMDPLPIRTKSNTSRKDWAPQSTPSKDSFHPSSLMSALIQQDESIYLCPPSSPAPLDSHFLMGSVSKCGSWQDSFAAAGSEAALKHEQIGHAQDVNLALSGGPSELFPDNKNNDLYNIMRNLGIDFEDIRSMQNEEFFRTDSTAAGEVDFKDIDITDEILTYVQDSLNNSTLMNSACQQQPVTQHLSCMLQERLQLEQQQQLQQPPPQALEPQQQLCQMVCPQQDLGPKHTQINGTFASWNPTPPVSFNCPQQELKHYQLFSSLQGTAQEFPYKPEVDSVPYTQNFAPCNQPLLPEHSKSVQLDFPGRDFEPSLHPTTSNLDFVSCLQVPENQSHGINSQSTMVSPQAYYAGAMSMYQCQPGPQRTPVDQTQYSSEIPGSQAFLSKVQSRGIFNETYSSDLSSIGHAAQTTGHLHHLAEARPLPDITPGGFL
# How it was run: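 Hepa 1c1c7 cells express AhR endogenously and stably carry a DRE-driven firefly luciferase reporter. They were prestimulated with the agonist kynurenic acid before compound testing for antagonism. Luciferase read by SteadyGlo luminescence.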
SMILES,pIC50 (Human AhR),pIC50 (Mouse AhR)
"CC(NC(=O)c1cc(-c2ccc(OC(F)(F)F)cc2)nc(-c2cnn(C)c2)n1)C(O)CO (stereo not shown) [Example 104, N-(3,4-dihydroxybutan-2-yl)-2-(1-methyl-1H-pyrazol-4-yl)-6-[4-(trifluoromethoxy)phenyl]pyrimidine-4-carboxamide]",7.90,7.69
"Cn1cc(-c2nc(C(=O)NC3CCCC(F)(F)C3O)cc(-c3ccc(OC(F)(F)F)cc3)n2)cn1 (stereo not shown) [Example 106, N-(3,3-difluoro-2-hydroxycyclohexyl)-2-(1-methyl-1H-pyrazol-4-yl)-6-[4-(trifluoromethoxy)phenyl]pyrimidine-4-carboxamide]",8.14,7.70
"C[C@@H](CO)NC(=O)c1cc(-c2ccc(C(F)(F)F)cc2)nc(-c2cccnc2)n1 [Example 117, N-[(2S)-1-hydroxypropan-2-yl]-2-(pyridin-3-yl)-6-[4-(trifluoromethyl)phenyl]pyrimidine-4-carboxamide]",8.90,8.88

# The remaining compounds from weak to strong by pIC50 (Human AhR), led by results:
pIC50 (Human AhR),pIC50 (Mouse AhR),SMILES
8.54,8.17,"C[C@H](NC(=O)c1cc(-c2ccc(C(F)F)cc2)nc(-c2cccnc2)n1)C(C)(C)O [Example 119, 6-[4-(difluoromethyl)phenyl]-N-[(2S)-3-hydroxy-3-methylbutan-2-yl]-2-(pyridin-3-yl)pyrimidine-4-carboxamide]"
8.63,8.47,"O=C(N[C@H]1COC[C@@H]1O)c1cc(-c2ccc(OC(F)(F)F)cc2)nc(-c2cccnc2)n1 [Example 118, N-[(3S,4R)-4-hydroxyoxolan-3-yl]-2-(pyridin-3-yl)-6-[4-(trifluoromethoxy)phenyl]pyrimidine-4-carboxamide]"
